Read-outs that look alike come from different tables or passages of the source.
Tested on: Leucine Dehydrogenase (LeuDH) from B. cereus containing a SUMO-protein domain
Format: biochemical, Bacillus cereus
Conditions: for A 600 nm (absorbance values for L-amino acids): 15 minutes at 37° C., 100 mM Tris-HCl pH7.5, MTT reduction
Source text: The IDIr biochemical network uses the enzyme Leucine Dehydrogenase (LeuDH) for oxidizing the branched-chain amino acids (BCAA) and for producing the colorimetric substrate, blue reduced MTT. The absorbance values are proportional to BCAA levels. Detection and measurement branched-chain amino acids in biological fluids (serum and urine) correlate with insulin-resistance indexes. Thus, the substrate specificity (other L-amino acids than BCAA) of Leucine Dehydrogenase (LeuDH) from B. cereus containing a SUMO-protein domain needs to be verified to avoid erroneous results using IDIr test.
Analysis of the substrate specificity of the Leucine Dehydrogenase co-expressed with SUMO-protein domain was done using 18 natural proteinogenic L-amino acids in the same conditions used for determining the kinetic parameter of LeuDH with BCAA as substrates.
All solutions were prepared in 100 mM Tris-HCl pH7.5 buffer
• NAD+50 mM • Ascorbate Oxidase 10 U/mL • 1M-PMS 0.2 mM
• MTT 2 mM • Leucine Dehydrogenase 75 U/mL • L-amino acids • L-Leucine 1 mM • L-Valine 1 mM • L-Isoleucine 1 mM • L-Alanine 1 mM • L-Arginine 1 mM • L-Aspartate 1 mM • L-Glycine 1 mM • L-Glutamate 1 mM • L-Glutamine 1 mM • L-Histidine 1 mM • L-Lysine 1 mM • L-Methionine 1 mM • L-Phenylalanine 1 mM • L-Proline 1 mM • L-Serine 1 mM • L-Threonine 1 mM • L-Tryptophan 1 mM • L-Tyrosine 1 mM
8 μL of A Solution were pre-incubated with 53 μL of each L-amino acid separately in a well of the microplate for 5 minutes at 37° C. Then, 4 μL of B Solution were added. The kinetics of the reactions were followed during 30 minutes at 37° C. Absorbances were read at 600 nm every 60 seconds.
Blanks were performed using Tris-HCl 100 mM pH 7.5 buffer containing no L-amino acid during the incubation with A solution. Experiments were performed in duplicates. Results were normalized to the oxidation of L-leucine at 15 minutes.
Oxidation of L-amino acids was followed by colorimetric reduction of Thyazolyl Blue Tetrazolium Bromide. Absorbance at 600 nm is proportional to the concentration of L-amino acids in solution.

[1] = normalized to L-Leucine oxidation at 15 minutes (100%), 37° C., L-amino acid 1 mM

Row | Structure (SMILES) | A 600 nm (absorbance values for L-amino acids) (L-amino acid 1 mM) | Normalized activity (%) [1] | Normalized activity (%)
1 | N[C@@H](CO)C(=O)O [SER, L-Serine] | 0.001 | 0.2% | –
2 | NCCCC[C@H](N)C(=O)O [LYS, L-Lysine] | 0.001 | 0.1% | –
3 | N[C@@H](Cc1c[nH]cn1)C(=O)O [HIS, L-Histidine] | 0.001 | 0.2% | –
4 | N[C@@H](Cc1ccc(O)cc1)C(=O)O [TYR, L-Tyrosine] | 0.002 | 0.3% | –
5 | NCC(=O)O [GLY, L-Glycine] | 0.001 | – | 0.1%
6 | N[C@@H](Cc1ccccc1)C(=O)O [PHE, L-Phenylalanine] | 0.002 | 0.3% | –
7 | CC[C@H](C)[C@H](N)C(=O)O [ILE, L-Isoleucine] | 0.601 | 102.5% | –
8 | C[C@@H](O)[C@H](N)C(=O)O [THR, L-Threonine] | 0.002 | 0.3% | –
9 | CSCC[C@H](N)C(=O)O [MET, L-Methionine] | 0.019 | – | 3.2%
10 | C[C@H](N)C(=O)O [ALA, L-Alanine] | 0.002 | 0.3% | –
11 | CC(C)[C@H](N)C(=O)O [VAL, L-Valine] | 0.612 | 104.3% | –
12 | N=C(N)NCCC[C@H](N)C(=O)O [ARG, L-Arginine] | 0.003 | 0.4% | –
13 | N[C@@H](Cc1c[nH]c2ccccc12)C(=O)O [TRP, L-Tryptophan] | 0.003 | 0.4% | –
14 | O=C(O)[C@@H]1CCCN1 [PRO, L-Proline] | 0.008 | – | 1.3%
15 | NC(=O)CC[C@H](N)C(=O)O [GLN, L-Glutamine] | 0.001 | 0.2% | –
16 | CC(C)C[C@H](N)C(=O)O [LEU, L-Leucine] | 0.587 | 100.0% | –
17 | N[C@@H](CCC(=O)O)C(=O)O [GLU, L-Glutamate] | 0.002 | 0.3% | –
18 | N[C@@H](CC(=O)O)C(=O)O [ASP, L-Aspartate] | 0.000 | 0.0% | –

Reference: patent US20250355000A1, “URINARY BRANCHED-CHAIN AMINO ACIDS (UBCAAS) AS INSULIN RESISTANCE BIOMARKERS” (SKILLCELL, priority 2022, published 2025)
